Each structure is given as a SMILES string.

The target in experiment [1] is myosin V (S1) 6IQ construct (Gallus gallus, UniProt Q02440). Type of experiment: binding.
Experiment [2] has as its target myosin V (S1) 1IQ construct (Gallus gallus, UniProt Q02440). Type of experiment: binding.

Sequence of myosin V (S1) 6IQ construct (Q02440 whole entry, looked up): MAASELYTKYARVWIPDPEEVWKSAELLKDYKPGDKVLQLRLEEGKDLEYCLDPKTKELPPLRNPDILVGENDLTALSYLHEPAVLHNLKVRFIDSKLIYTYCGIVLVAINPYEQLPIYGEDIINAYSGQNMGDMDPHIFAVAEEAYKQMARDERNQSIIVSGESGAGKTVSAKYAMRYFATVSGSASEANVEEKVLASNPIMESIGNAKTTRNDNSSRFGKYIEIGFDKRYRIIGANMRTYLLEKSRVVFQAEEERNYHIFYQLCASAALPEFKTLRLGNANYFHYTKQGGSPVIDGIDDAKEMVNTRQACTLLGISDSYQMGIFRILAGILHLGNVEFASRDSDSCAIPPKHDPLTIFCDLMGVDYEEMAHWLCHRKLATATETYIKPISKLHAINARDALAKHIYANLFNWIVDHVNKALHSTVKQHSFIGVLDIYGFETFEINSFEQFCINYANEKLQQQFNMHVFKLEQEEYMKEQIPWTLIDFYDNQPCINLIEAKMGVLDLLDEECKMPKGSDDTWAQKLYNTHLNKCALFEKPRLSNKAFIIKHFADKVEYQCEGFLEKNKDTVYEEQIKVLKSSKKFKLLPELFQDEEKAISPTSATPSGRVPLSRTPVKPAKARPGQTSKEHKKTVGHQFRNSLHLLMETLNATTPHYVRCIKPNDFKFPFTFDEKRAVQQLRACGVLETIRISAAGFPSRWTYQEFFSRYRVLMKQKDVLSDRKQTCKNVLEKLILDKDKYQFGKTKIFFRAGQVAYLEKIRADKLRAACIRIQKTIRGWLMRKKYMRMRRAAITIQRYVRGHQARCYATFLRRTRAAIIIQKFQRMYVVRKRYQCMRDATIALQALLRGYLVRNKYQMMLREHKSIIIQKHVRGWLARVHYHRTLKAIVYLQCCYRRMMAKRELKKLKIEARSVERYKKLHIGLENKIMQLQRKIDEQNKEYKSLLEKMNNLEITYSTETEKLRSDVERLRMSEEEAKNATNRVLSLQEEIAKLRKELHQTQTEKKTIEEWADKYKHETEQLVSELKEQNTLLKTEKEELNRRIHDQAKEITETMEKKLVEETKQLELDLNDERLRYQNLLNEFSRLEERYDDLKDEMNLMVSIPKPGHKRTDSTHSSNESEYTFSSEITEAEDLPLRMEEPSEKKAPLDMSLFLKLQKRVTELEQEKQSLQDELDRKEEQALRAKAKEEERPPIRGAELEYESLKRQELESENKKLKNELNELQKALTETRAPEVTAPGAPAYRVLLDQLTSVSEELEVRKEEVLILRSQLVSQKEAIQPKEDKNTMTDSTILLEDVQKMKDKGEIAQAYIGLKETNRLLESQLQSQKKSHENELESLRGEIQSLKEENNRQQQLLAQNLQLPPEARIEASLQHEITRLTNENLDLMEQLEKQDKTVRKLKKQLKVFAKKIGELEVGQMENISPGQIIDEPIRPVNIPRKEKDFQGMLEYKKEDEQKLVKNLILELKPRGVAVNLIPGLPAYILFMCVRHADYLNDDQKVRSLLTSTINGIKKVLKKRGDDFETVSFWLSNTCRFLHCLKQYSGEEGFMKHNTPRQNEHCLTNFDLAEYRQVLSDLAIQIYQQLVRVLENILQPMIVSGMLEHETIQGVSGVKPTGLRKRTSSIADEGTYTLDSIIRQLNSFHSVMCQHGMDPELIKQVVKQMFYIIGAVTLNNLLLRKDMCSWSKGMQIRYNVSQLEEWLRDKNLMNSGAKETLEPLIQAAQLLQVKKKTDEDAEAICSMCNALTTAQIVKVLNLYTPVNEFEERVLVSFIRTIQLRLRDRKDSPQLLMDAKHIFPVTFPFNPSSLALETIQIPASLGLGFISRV
Sequence of myosin V (S1) 1IQ construct (Q02440 whole entry, looked up): as above

Take `Nc1ncnc2c1ncn2[C@@H]1O[C@H](COP(=O)(O)OP(=O)(O)O)[C@@H](O)[C@H]1O` [ADP]: the Kd – broadly, the concentration at which binding is half-saturated – in experiment [1] was approximately 1000 nM; in experiment [2], 2400 ± 1700 nM.

The values are drawn from paper PMC2917589 (Nature chemical biology, 2010).
